Converted amounts (≈) assume the structure as drawn. Read-outs that look alike come from different tables or passages of the source.
Key:
[1] = tested on: Borrelia turcica DSM 16138; conditions: for MIC: Borrelia turcica
[2] = tested on: Clostridium perfringens KLE 2326; assay: microbe, parasite or virus in culture; format: cell-based
[3] = tested on: Bacteroides eggerthii KLE 2382; format: cell-based; conditions: Bacteroides eggerthii KLE 2382, anaerobic, stool isolate
[4] = tested on: Enterococcus faecalis KLE 2341; format: cell-based
[5] = tested on: Borreliella burgdorferi B31
[6] = tested on: Blautia producta ATCC 27340; format: cell-based; conditions: Blautia producta ATCC 27340, anaerobic
[7] = tested on: Staphylococcus epidermidis KLE 2378; format: cell-based; conditions: Staphylococcus epidermidis KLE 2378, anaerobic, stool isolate
[8] = tested on: Clostridium tertium KLE 2303; format: cell-based; conditions: Clostridium tertium KLE 2303, anaerobic, stool isolate
[9] = tested on: Pseudomonas aeruginosa PAO1; format: cell-based
[10] = tested on: Bacteroides xylanisolvens KLE 2305; format: cell-based; conditions: Bacteroides xylanisolvens KLE 2305, anaerobic, stool isolate
[11] = tested on: Fusobacterium nucleatum KLE 2428; format: cell-based; conditions: Fusobacterium nucleatum KLE 2428, anaerobic, stool isolate
[12] = tested on: Bacteroides fragilis ATCC 25285; format: cell-based
[13] = tested on: Leptospira biflexa ATCC 23582; conditions: for MIC: Leptospira biflexa
[14] = tested on: Bifidobacterium longum ATCC BAA-999; format: cell-based
[15] = tested on: Borreliella burgdorferi 297
[16] = tested on: Streptococcus parasanguinis KLE 2375; format: cell-based; conditions: Streptococcus parasanguinis KLE 2375, anaerobic, stool isolate
[17] = tested on: Bacteroides cellulosilyticus KLE 2342; format: cell-based; conditions: Bacteroides cellulosilyticus KLE 2342, anaerobic, stool isolate
[18] = tested on: Bacteroides nordii KLE 2369; format: cell-based; conditions: Bacteroides nordii KLE 2369, anaerobic, stool isolate
[19] = tested on: Streptococcus salivarius KLE 2370; format: cell-based; conditions: Streptococcus salivarius KLE 2370, anaerobic, stool isolate
[20] = tested on: Salmonella typhimurium LT2 ATCC 19585; format: cell-based
murine gut microbiome = assay: Impact on the murine fecal microbiome (16S rRNA sequencing)
Experimental: Stool samples were collected and V4 region of the 16s rRNA gene was amplified using primers and sequenced (IonTorrent).
Fecal pellets were collected 3 days before and 3 days after antibiotic treatment and were stored at −80° C. in PBS. Sequencing of a stool pellet from each mouse from before and after treatment was performed by MR DNA (www.mrdnalab.com, Shallowater, TX, USA) on an Ion Torrent PGM. Using PCR primers, the V4 variable region of the 16SrRNA gene was amplified in a single-step 30 cycle PCR with the HotStarTaq Plus Master Mix Kit (Qiagen, USA). The following conditions were used: 94° C. for 3 minutes and 30 cycles of 94° C. for 30 seconds, 53° C. for 40 seconds and 72° C. for 1 minute, then a final elongation step for 5 minutes at 72° C. […] Barcodes and primers and then sequences<150 bp were removed. Further, sequences with homopolymer runs exceeding 6 bp and sequences with ambiguous calls were removed. The sequences were then denoised, OTUs were generated, and chimeras were removed; OTUs were clustered at 3% divergence. Taxonomic classification was performed using BLASTn against a database derived from RDPII available at www.rdp.cme.msu.edu) and NCBI (www.ncbi.nlm.nih.gov). The change in relative abundance of the most abundant genera from before to after treatment of each individual mouse was reported. Further, raw sequences were processed in Qiita (Gonzalez, A., et al. (2018). Nat Methods 15, 796-798; the contents of which are herein incorporated by reference in its entirety) and were demultiplexed, trimmed to 100 bp, and closed reference OTU picking was performed against the Greengenes database at 97% similarity (McDonald, D. et al. (2012). ISME J 6, 610-618; the contents of which are herein incorporated by reference in its entirety). The alpha diversity based on the Simpson index was calculated in Qiita. The change in the Simpson index was calculated for the fecal microbiome of each mouse from before to after treatment. Statistical significance was calculated using a one-way ANOVA with Tukey's multiple comparisons test (p<0.05).

[21] = tested on: Shigella sonnei ATCC 25931; format: cell-based
[22] = tested on: Borrelia burgdorferi BbP1286; assay: microbe, parasite or virus in culture; conditions: Borreliella burgdorferi, BBP1286, read-out: Minimum inhibitory concentration (MIC)

## Hygromycin A
[1]
  MIC: 0.5 µg
[1]; Borrelia turcica DSM 16138, microaerophilic
  Minimum inhibitory concentration (MIC): 0.5 µg/mL
[2]; Clostridium perfringens KLE 2326, anaerobic, stool isolate
  Minimum inhibitory concentration (MIC): 8 µg/mL
[3]
  Minimum inhibitory concentration (MIC): 64 µg/mL
Borrelia afzelii; B. afzelii
  MIC: 0.25 µg/mL
Borrelia afzelii; Borrelia afzelii
  MIC: 0.25 µg
Borrelia afzelii; Borreliella afzelii, microaerophilic
  Minimum inhibitory concentration (MIC): 0.25 µg/mL
[4]; Enterococcus faecalis
  MIC: >128 µg
[4]; Enterococcus faecalis KLE 2341, anaerobic, stool isolate
  Minimum inhibitory concentration (MIC): >128 µg/mL
[5]
  MIC: 0.25 µg/mL
[5]; Borreliella burgdorferi B31, microaerophilic
  Minimum inhibitory concentration (MIC): 0.25 µg/mL
[6]
  Minimum inhibitory concentration (MIC): 64 µg/mL
[7]
  Minimum inhibitory concentration (MIC): 32 µg/mL
[8]
  Minimum inhibitory concentration (MIC): 8 µg/mL
[9]; Pseudomonas aeruginosa
  MIC: >128 µg
[9]; Pseudomonas aeruginosa PAO1
  Minimum inhibitory concentration (MIC): >128 µg/mL
[10]
  Minimum inhibitory concentration (MIC): >128 µg/mL
[11]
  Minimum inhibitory concentration (MIC): 1 µg/mL
[12]; Bacteroides fragilis
  MIC: >128 µg
[12]; Bacteroides fragilis ATCC 25285, anaerobic
  Minimum inhibitory concentration (MIC): 32 µg/mL
[13]
  MIC: 4 µg
[13]; Leptospira biflexa ATCC 23582
  Minimum inhibitory concentration (MIC): 4 µg/mL
Borrelia bavariensis; B. bavariensis
  MIC: 0.25 µg/mL
Borrelia bavariensis; Borrelia bavariensis
  MIC: 0.25 µg
Borrelia bavariensis; Borreliella bavariensis, microaerophilic
  Minimum inhibitory concentration (MIC): 0.25 µg/mL
[14]; Bifidobacterium longum
  MIC: 8 µg
[14]; Bifidobacterium longum ATCC BAA-999, anaerobic
  Minimum inhibitory concentration (MIC): 8 µg/mL
[15]; Borreliella burgdorferi 297, microaerophilic
  Minimum inhibitory concentration (MIC): 0.25 µg/mL
[16]
  Minimum inhibitory concentration (MIC): 4 µg/mL
[17]
  Minimum inhibitory concentration (MIC): 8 µg/mL
[18]
  Minimum inhibitory concentration (MIC): 8 µg/mL
[19]
  Minimum inhibitory concentration (MIC): 2 µg/mL
[20]; Salmonella typhimurium
  MIC: >128 µg
[20]; Salmonella typhimurium LT2 ATCC 19585, anaerobic
  Minimum inhibitory concentration (MIC): >128 µg/mL
Murine gut microbiome; HygA 50 mg/kg oral, 5 days
  Increases in Enterococcaceae or Enterobacteriaceae: did not lead to increases
  Mice that maintained Bacteroidaceae levels: 1/5
  Mice with decreased Bacteroidaceae: 3/5
  Mice with increased Bacteroidaceae: 1/5
Murine gut microbiome; HygA 50 mg/kg oral, 5 days, not significantly different from untreated
  Overall fluctuation of Bacteroidaceae: −8.5 % relative abundance
Murine gut microbiome; after treatment
  Change in symbiotic Lactobacillus and Lactococcus: prominent increase
Murine gut microbiome; clinically relevant doses, 16S rDNA sequencing, FIG. 8, 9A, 9B
  Changes in the composition of the microbiota: milder
[21]; Shigella sonnei
  MIC: 64 µg
[21]; Shigella sonnei ATCC 25931, anaerobic
  Minimum inhibitory concentration (MIC): 64 µg/mL
Borrelia garinii; B. garinii
  MIC: 0.25 µg/mL
Borrelia garinii; Borrelia garinii
  MIC: 0.25 µg
Borrelia garinii; Borreliella garinii, microaerophilic
  Minimum inhibitory concentration (MIC): 0.25 µg/mL

## CO/N=C(\C(=O)N[C@@H]1C(=O)N2C(C(=O)O)=C(CSc3nc(=O)c(=O)[nH]n3C)CS[C@H]12)c1csc(N)n1 [Ceftriaxone]
[1]; DSM16138, read-out: Minimum inhibitory concentration (MIC)
  MIC: 0.06 µg/mL (≈ 0.108 µM)
[2]; Clostridium perfringens, KLE2326, read-out: Minimum inhibitory concentration (MIC)
  MIC: < 0.01 µg/mL
Borrelia afzelii; Borreliella afzelii, read-out: Minimum inhibitory concentration (MIC)
  MIC: < 0.01 µg/mL
[4]; KLE2341, Enterococcus faecalis KLE 2341, anaerobic, stool isolate, read-out: Minimum inhibitory concentration (MIC)
  MIC: > 128 µg/mL
[5]; Borreliella burgdorferi, B31, read-out: Minimum inhibitory concentration (MIC)
  MIC: 0.01 µg/mL (≈ 0.018 µM)
[6]; ATCC27340, read-out: Minimum inhibitory concentration (MIC)
  MIC: 0.5 µg/mL (≈ 0.902 µM)
[7]; KLE2378, read-out: Minimum inhibitory concentration (MIC)
  MIC: 1 µg/mL (≈ 1.8 µM)
[8]; KLE2303, read-out: Minimum inhibitory concentration (MIC)
  MIC: 1 µg/mL (≈ 1.8 µM)
[9]; Pseudomonas aeruginosa PAO1, read-out: Minimum inhibitory concentration (MIC)
  MIC: 64 µg/mL (≈ 115 µM)
[10]; KLE2305, read-out: Minimum inhibitory concentration (MIC)
  MIC: 64 µg/mL (≈ 115 µM)
[22]
  MIC: 0.01 µg/mL (≈ 0.018 µM)
[11]; KLE2428, read-out: Minimum inhibitory concentration (MIC)
  MIC: 0.5 µg/mL (≈ 0.902 µM)
[12]; ATCC25285, Bacteroides fragilis ATCC 25285, anaerobic, read-out: Minimum inhibitory concentration (MIC)
  MIC: 2 µg/mL (≈ 3.61 µM)
[13]; ATCC23582, read-out: Minimum inhibitory concentration (MIC)
  MIC: 2 µg/mL (≈ 3.61 µM)
Borrelia bavariensis; Borreliella bavariensis, read-out: Minimum inhibitory concentration (MIC)
  MIC: 0.01 µg/mL (≈ 0.018 µM)
[14]; ATCCBAA999, Bifidobacterium longum ATCC BAA-999, anaerobic, read-out: Minimum inhibitory concentration (MIC)
  MIC: 4 µg/mL (≈ 7.21 µM)
[15]; Borreliella burgdorferi, 297, read-out: Minimum inhibitory concentration (MIC)
  MIC: 0.01 µg/mL (≈ 0.018 µM)
[16]; KLE2375, read-out: Minimum inhibitory concentration (MIC)
  MIC: 0.06 µg/mL (≈ 0.108 µM)
[17]; KLE2342, read-out: Minimum inhibitory concentration (MIC)
  MIC: 128 µg/mL (≈ 231 µM)
[18]; KLE2369, read-out: Minimum inhibitory concentration (MIC)
  MIC: 1 µg/mL (≈ 1.8 µM)
[19]; KLE2370, read-out: Minimum inhibitory concentration (MIC)
  MIC: 0.03 µg/mL (≈ 0.0541 µM)
[20]; Salmonella enterica, Salmonella typhimurium LT2 ATCC 19585, anaerobic, read-out: Minimum inhibitory concentration (MIC)
  MIC: 0.25 µg/mL (≈ 0.451 µM)
Murine gut microbiome; mouse, in vivo
  Mice with Enterococcaceae blooms: 5/5
[21]; ATCC25931, Shigella sonnei ATCC 25931, anaerobic, read-out: Minimum inhibitory concentration (MIC)
  MIC: 0.25 µg/mL (≈ 0.451 µM)
Borrelia garinii; Borreliella garinii, read-out: Minimum inhibitory concentration (MIC)
  MIC: 0.01 µg/mL (≈ 0.018 µM)

— patent US20240082282A1 (priority 2020, published 2024)
